{"source": "patent US20070190036A1", "about": "“Microencapsulation of pancreatic islets within a thin coat of glucagon-like peptide-1 functionalized poly(ethylene glycol)” (priority 2006, published 2007)", "origin": "cited, not measured here", "tested_on": "rat pancreatic islets", "settings": "isolated rat pancreatic islets", "data": [{"substance": "glucagon-like peptide 1 [GLP-1]", "values": [{"measurement": "concentration at which insulinotropic activity began", "value": 2.5, "unit": "nM"}, {"measurement": "concentration at which insulinotropic activity was saturated", "value": 250, "unit": "nM"}]}]}
